# Results from US7790461B2, “Nano-emulsion technology for drug elution” (Medtronic MiniMed, Inc., priority 2007, dated 2010).
# Tests used:
# [1] = 0.022 mg/mL
# Description: To evaluate buffers with different pH, eleven milligrams of Dexamethasone Acetate was dissolved in 500 mL of media (different pH adjusted buffers).
# [2] = Stability of drug in elution media; assay type: physicochemical; conditions: length of the study
# Description: The mobile phase preparation and choice of the column were instructed in the Dexamethasone Acetate monograph USP29-NF24. The mobile phase A consisted of pH 4.1 formate buffer and acetonitrile (3:2), and mobile phase B consisted of pH 4.1 formate buffer and acetonitrile (9:1). The chromatographic column (USP L11) used was an Agilent Zorbax SB-Phenyl, 4.6 mm×250 mm, 5 μm. A gradient was used with 1 mL/min flow rate. The run time was about 70 minutes. […] The injection volume for standard and samples was 100 μL.
smiles,measurement,setting,value
CC(=O)OCC(=O)[C@@]1(O)[C@H](C)C[C@H]2[C@@H]3CCC4=CC(=O)C=C[C@]4(C)[C@@]3(F)[C@@H](O)C[C@@]21C [Dexamethasone Acetate],stability with respect to pH (order),[1],pH 3>pH 5≅acetate pH 5.7>water>pH 7>pH 9
same,stability in the media,[2],stable
